What was measured:
[1] = design: method as in PMID 29799676, PMID 31250355, PMID 28264872; conditions: 600 mg BID, cited from earlier work
patients = system: patients; design: method as in PMID 28264872; conditions: dose escalation study; not reached; cited from earlier work
[2] = cited from earlier work
[3] = design: method as in PMID 28222073; conditions: immediate-release tablet; cited from earlier work
[4] = Plasma pharmacokinetics after a single oral dose of rucaparib 600 mg in patients with advanced solid tumors, by hepatic function group; conditions: for AUC(0-inf) / AUC(0-t) / Cmax / Vd/F / half-life / Tmax: human, plasma, 600 mg; for AUC(0-t): AUC0–last; for Vd/F: Vz/F
Description: In Part 1, patients received a single oral dose of rucaparib 600 mg on day 1; PK samples were collected and safety monitored through day 7.
Sample collection, processing, and shipping were conducted according to standardized protocols shared across study sites. Plasma samples were collected for PK analysis at the predose assessment and at 1, 2, 3, 4, 8, 12, 24, 48, 72, 96, 120, and 144 h postdose. A predose urine sample was collected less than 12 h prior to study drug administration. Total urine was collected 0–12 h and 12–24 h postdose. Total (bound and unbound) concentrations of rucaparib and its metabolite M324 in plasma and urine samples were determined by Q Squared Solutions BioSciences (Ithaca, NY, USA) using validated liquid chromatography mass spectrometry/mass spectrometry methods. Stable deuterium-labeled analytes were used as internal standards. The assay calibration ranges for plasma samples were 5–10,000 ng/mL for rucaparib and 1–1000 ng/mL for M324 with lower limits of quantification (LLOQ) of 5.00 and 1.00 ng/mL, respectively. For urine samples, the calibration range was 500–50,000 ng/mL for both rucaparib and M324, with a LLOQ of 500 ng/mL for both analytes. The precision was within 9.3% CV, and the accuracy was within ± 6.2%.
PK parameters were estimated from the concentration–time profiles. Actual elapsed time after dosing was used to estimate plasma PK parameters based on noncompartmental methods using Phoenix® WinNonlin® version 8.1.0 (Certara USA, Inc., Princeton, NJ, USA). […] Exploratory PK parameters for M324 calculated based on plasma and urine concentration-time data were Cmax, AUC0–last, AUC0–inf, t1/2, tmax, Ae0–24, and CLR, as data allowed.
PK parameters were calculated by noncompartmental analysis, analyzed using descriptive statistics, and presented by hepatic functional status. Analysis of variance (ANOVA) was used to compare PK parameters (e.g., Cmax, AUC0–last, and AUC0–inf) between the normal hepatic function group and the moderate hepatic impairment group per NCI-ODWG criteria. PK values were log-transformed before analysis. Baseline covariates (e.g., creatinine clearance [CLcr], sex, age, BMI, and ECOG PS) were tested for any significant effect (P value < 0.05). Geometric least-squares means were used to calculate the ratios of the PK parameters in the hepatic impairment group to those in the control group, along with 90% confidence intervals (CIs). The Wilcoxon rank-sum test was used to compare tmax values between the two groups, and estimates of the median differences were determined, along with 90% CIs. In addition, the relationships between log-transformed PK parameters (AUC0–last, AUC0–inf, Cmax) for rucaparib and M324 and hepatic function parameters (bilirubin and aspartate aminotransferase [AST]) relevant to the classification of hepatic impairment according to NCI-ODWG were explored by a linear regression approach.

[5] = cited from earlier work; remark: listed apart in the source
[6] = design: method as in PMID 32129697; conditions: in vitro; cited from earlier work
[7] = estimated with 36% absolute oral bioavailability
[8] = ANOVA, NCI-ODWG moderate hepatic impairment vs normal hepatic function
[9] = Child–Pugh mild hepatic impairment, single oral rucaparib 600 mg
[10] = Child–Pugh moderate hepatic impairment, single oral rucaparib 600 mg
[11] = Child–Pugh severe hepatic impairment, single oral rucaparib 600 mg
[12] = NCI-ODWG moderate hepatic impairment, single oral rucaparib 600 mg
[13] = NCI-ODWG normal hepatic function, single oral rucaparib 600 mg
[14] = oral, Geometric LS means, ANOVA, NCI-ODWG moderate hepatic impairment (n = 8)
[15] = oral, Geometric LS means, ANOVA, NCI-ODWG normal hepatic function (n = 8)
[16] = po, GM, Child–Pugh mild hepatic impairment, single oral rucaparib 600 mg
[17] = po, GM, Child–Pugh moderate hepatic impairment, single oral rucaparib 600 mg
[18] = po, GM, Child–Pugh severe hepatic impairment, single oral rucaparib 600 mg
[19] = po, GM, NCI-ODWG moderate hepatic impairment, single oral rucaparib 600 mg
[20] = po, GM, NCI-ODWG normal hepatic function, single oral rucaparib 600 mg
[21] = po, Mean (SD), Child–Pugh mild hepatic impairment, single oral rucaparib 600 mg
[22] = po, Mean (SD), Child–Pugh moderate hepatic impairment, single oral rucaparib 600 mg
[23] = po, Mean (SD), Child–Pugh severe hepatic impairment, single oral rucaparib 600 mg
[24] = po, Mean (SD), NCI-ODWG moderate hepatic impairment, single oral rucaparib 600 mg
[25] = po, Mean (SD), NCI-ODWG normal hepatic function, single oral rucaparib 600 mg
[26] = po, Median (min–max), Child–Pugh mild hepatic impairment, single oral rucaparib 600 mg
[27] = po, Median (min–max), Child–Pugh moderate hepatic impairment, single oral rucaparib 600 mg
[28] = po, Median (min–max), Child–Pugh severe hepatic impairment, single oral rucaparib 600 mg
[29] = po, Median (min–max), NCI-ODWG moderate hepatic impairment, single oral rucaparib 600 mg
[30] = po, Median (min–max), NCI-ODWG normal hepatic function, single oral rucaparib 600 mg
[31] = linear regression of log-transformed PK parameter on hepatic function parameter (NCI-ODWG)

Compound: CNCc1ccc(-c2[nH]c3cc(F)cc4c3c2CCNC4=O)cc1 [rucaparib]
- AUC0–12 h at steady state ([1]; 54% CV): 16900 h⋅ng/mL
- mean steady-state maximum plasma concentration (Cmax,ss) ([1]; 54% CV): 1940 ng/mL
- Median time to steady-state maximum concentration (tmax,ss) [1]: 6840 s
- time to achieve steady state [1]: 1 week
- maximum tolerated dose (patients): > 840 mg BID
- hepatic elimination route, share of total clearance [2, 7]: ~ 70%
- renal elimination route, share of total clearance [2, 7]: ~ 30%
- mean terminal half-life (t1/2) ([2]; single oral dose of [14C]-rucaparib 600 mg): 25.9 h
- absolute bioavailability, range [3]: 30–45%
- mean absolute bioavailability [3]: 36%
- AUC0-inf, Geometric mean ratio Moderate/normal (90% CI) [4, 8]: 1.446
- AUC0–last, Geometric mean ratio Moderate/normal (90% CI) [4, 8]: 1.335 (0.617–2.891)
- Cmax, Geometric mean ratio Moderate/normal (90% CI) [4, 8]: 0.907 (0.605–1.362)
- AUC0-inf, Geometric mean ratio Moderate/normal (90% CI) ([4]; ANOVA, NCI-ODWG moderate hepatic impairment vs normal hepatic function, listed as Rucaparib): 1.446 (0.668–3.131)
- CL/F, GM [4, 9]: 64.0 L/h
- CL/F, Mean (SD) [4, 9]: 82.2 (59.5) L/h
- CL/F, Median (min–max) [4, 9]: 68.3 (26.4–180) L/h
- CL/F, GM [4, 10]: 23.7 L/h
- CL/F, Mean (SD) [4, 10]: 25.1 (8.62) L/h
- CL/F, Median (min–max) [4, 10]: 28.4 (14.6–34.6) L/h
- CL/F, GM [4, 11]: 22.2 L/h
- CL/F, Mean (SD) [4, 11]: 39.6 (46.4) L/h
- CL/F, Median (min–max) [4, 11]: 39.6 (6.79–72.4) L/h
- CL/F, GM [4, 12]: 30.2 L/h
- CL/F, Mean (SD) [4, 12]: 48.1 (56.8) L/h
- CL/F, Median (min–max) [4, 12]: 29.1 (6.79–180) L/h
- CL/F, GM [4, 13]: 43.7 L/h
- CL/F, Mean (SD) [4, 13]: 55.7 (42.7) L/h
- CL/F, Median (min–max) [4, 13]: 33.1 (15.9–133) L/h
- AUC(0-inf) ([4]; oral, AUC0-inf, Geometric LS means, ANOVA, NCI-ODWG moderate hepatic impairment (n = 8)): 19900 ng·h/mL
- AUC(0-inf) ([4]; oral, AUC0-inf, Geometric LS means, ANOVA, NCI-ODWG normal hepatic function (n = 8)): 13700 ng·h/mL
- AUC(0-t) [4, 14]: 17500 ng·h/mL
- AUC(0-t) [4, 15]: 13100 ng·h/mL
- Cmax [4, 14]: 583 ng/mL
- Cmax [4, 15]: 642 ng/mL
- AUC(0-inf) ([4]; po, AUC0–inf, GM, Child–Pugh mild hepatic impairment, single oral rucaparib 600 mg): 9370 ng·h/mL
- AUC(0-inf) ([4]; po, AUC0–inf, GM, Child–Pugh moderate hepatic impairment, single oral rucaparib 600 mg): 25300 ng·h/mL
- AUC(0-inf) ([4]; po, AUC0–inf, GM, Child–Pugh severe hepatic impairment, single oral rucaparib 600 mg): 27100 ng·h/mL
- AUC(0-inf) ([4]; po, AUC0–inf, GM, NCI-ODWG moderate hepatic impairment, single oral rucaparib 600 mg): 19900 ng·h/mL
- AUC(0-inf) ([4]; po, AUC0–inf, GM, NCI-ODWG normal hepatic function, single oral rucaparib 600 mg): 13700 ng·h/mL
- AUC(0-inf) ([4]; po, AUC0–inf, Mean (SD), Child–Pugh mild hepatic impairment, single oral rucaparib 600 mg): 11900 ng·h/mL
- AUC(0-inf) ([4]; po, AUC0–inf, Mean (SD), Child–Pugh moderate hepatic impairment, single oral rucaparib 600 mg): 26800 ng·h/mL
- AUC(0-inf) ([4]; po, AUC0–inf, Mean (SD), Child–Pugh severe hepatic impairment, single oral rucaparib 600 mg): 48300 ng·h/mL
- AUC(0-inf) ([4]; po, AUC0–inf, Mean (SD), NCI-ODWG moderate hepatic impairment, single oral rucaparib 600 mg): 29000 ng·h/mL
- AUC(0-inf) ([4]; po, AUC0–inf, Mean (SD), NCI-ODWG normal hepatic function, single oral rucaparib 600 mg): 17000 ng·h/mL
- AUC(0-inf) ([4]; po, AUC0–inf, Median (min–max), Child–Pugh mild hepatic impairment, single oral rucaparib 600 mg): 8780 ng·h/mL
- AUC(0-inf) ([4]; po, AUC0–inf, Median (min–max), Child–Pugh moderate hepatic impairment, single oral rucaparib 600 mg): 21100 ng·h/mL
- AUC(0-inf) ([4]; po, AUC0–inf, Median (min–max), Child–Pugh severe hepatic impairment, single oral rucaparib 600 mg): 48300 ng·h/mL
- AUC(0-inf) ([4]; po, AUC0–inf, Median (min–max), NCI-ODWG moderate hepatic impairment, single oral rucaparib 600 mg): 20600 ng·h/mL
- AUC(0-inf) ([4]; po, AUC0–inf, Median (min–max), NCI-ODWG normal hepatic function, single oral rucaparib 600 mg): 18100 ng·h/mL
- AUC(0-t) [4, 16]: 8910 ng·h/mL
- AUC(0-t) [4, 17]: 22500 ng·h/mL
- AUC(0-t) [4, 18]: 23900 ng·h/mL
- AUC(0-t) [4, 19]: 17500 ng·h/mL
- AUC(0-t) [4, 20]: 13100 ng·h/mL
- AUC(0-t) [4, 21]: 11600 ng·h/mL
- AUC(0-t) [4, 22]: 24100 ng·h/mL
- AUC(0-t) [4, 23]: 42200 ng·h/mL
- AUC(0-t) [4, 24]: 25500 ng·h/mL
- AUC(0-t) [4, 25]: 16200 ng·h/mL
- AUC(0-t) [4, 26]: 8580 ng·h/mL
- AUC(0-t) [4, 27]: 18400 ng·h/mL
- AUC(0-t) [4, 28]: 42200 ng·h/mL
- AUC(0-t) [4, 29]: 17800 ng·h/mL
- AUC(0-t) [4, 30]: 17700 ng·h/mL
- Cmax [4, 16]: 550 ng/mL
- Cmax [4, 17]: 657 ng/mL
- Cmax [4, 18]: 692 ng/mL
- Cmax [4, 19]: 583 ng/mL
- Cmax [4, 21]: 604 ng/mL
- Cmax [4, 22]: 694 ng/mL
- Cmax [4, 23]: 827 ng/mL
- Cmax [4, 24]: 658 ng/mL
- Cmax [4, 25]: 685 ng/mL
- Cmax [4, 26]: 590 ng/mL
- Cmax [4, 27]: 762 ng/mL
- Cmax [4, 28]: 827 ng/mL
- Cmax [4, 29]: 471 ng/mL
- Cmax [4, 30]: 665 ng/mL
- Vd/F [4, 16]: 2320 L
- Vd/F [4, 17]: 1460 L
- Vd/F [4, 18]: 1530 L
- Vd/F [4, 19]: 1960 L
- Vd/F [4, 20]: 1650 L
- Vd/F [4, 21]: 3340 L
- Vd/F [4, 22]: 1660 L
- Vd/F [4, 23]: 2700 L
- Vd/F [4, 24]: 2840 L
- Vd/F [4, 25]: 2220 L
- Vd/F [4, 26]: 2130 L
- Vd/F [4, 27]: 1280 L
- Vd/F [4, 28]: 2700 L
- Vd/F [4, 29]: 2190 L
- Vd/F [4, 30]: 1270 L
- half-life ([4]; po, t1/2, GM, Child–Pugh mild hepatic impairment, single oral rucaparib 600 mg): 1510 min
- half-life ([4]; po, t1/2, GM, Child–Pugh moderate hepatic impairment, single oral rucaparib 600 mg): 2560 min
- half-life ([4]; po, t1/2, GM, Child–Pugh severe hepatic impairment, single oral rucaparib 600 mg): 2870 min
- half-life ([4]; po, t1/2, GM, NCI-ODWG moderate hepatic impairment, single oral rucaparib 600 mg): 2700 min
- half-life ([4]; po, t1/2, GM, NCI-ODWG normal hepatic function, single oral rucaparib 600 mg): 1570 min
- half-life ([4]; po, t1/2, Mean (SD), Child–Pugh mild hepatic impairment, single oral rucaparib 600 mg): 1650 min
- half-life ([4]; po, t1/2, Mean (SD), Child–Pugh moderate hepatic impairment, single oral rucaparib 600 mg): 2690 min
- half-life ([4]; po, t1/2, Mean (SD), Child–Pugh severe hepatic impairment, single oral rucaparib 600 mg): 2870 min
- half-life ([4]; po, t1/2, Mean (SD), NCI-ODWG moderate hepatic impairment, single oral rucaparib 600 mg): 2800 min
- half-life ([4]; po, t1/2, Mean (SD), NCI-ODWG normal hepatic function, single oral rucaparib 600 mg): 1710 min
- half-life ([4]; po, t1/2, Median (min–max), Child–Pugh mild hepatic impairment, single oral rucaparib 600 mg): 1600 min
- half-life ([4]; po, t1/2, Median (min–max), Child–Pugh moderate hepatic impairment, single oral rucaparib 600 mg): 2990 min
- half-life ([4]; po, t1/2, Median (min–max), Child–Pugh severe hepatic impairment, single oral rucaparib 600 mg): 2870 min
- half-life ([4]; po, t1/2, Median (min–max), NCI-ODWG moderate hepatic impairment, single oral rucaparib 600 mg): 2960 min
- half-life ([4]; po, t1/2, Median (min–max), NCI-ODWG normal hepatic function, single oral rucaparib 600 mg): 1580 min
- Tmax [4, 26]: 3.98 h
- Tmax [4, 27]: 3.95 h
- Tmax [4, 28]: 4.49 h
- Tmax [4, 29]: 3.96 h
- Tmax [4, 30]: 3.97 h
- Slope estimate (90% CI), AUC0-inf vs AST [4, 31]: 0.001 (–0.002 to 0.004)
- Slope estimate (90% CI), AUC0-inf vs Bilirubin [4, 31]: 0.003 (–0.014 to 0.020)
- Slope estimate (90% CI), AUC0-last vs AST [4, 31]: 0.001 (–0.002 to 0.004)
- Slope estimate (90% CI), AUC0-last vs Bilirubin [4, 31]: 0.002 (–0.015 to 0.019)
- Slope estimate (90% CI), Cmax vs AST [4, 31]: 0 (–0.002 to 0.001)
- Slope estimate (90% CI), Cmax vs Bilirubin [4, 31]: –0.002 (–0.011 to 0.007)
- plasma protein binding [5]: 70%
- metabolic turnover rate [6]: low

Source: paper PMC8236452, “Pharmacokinetics and safety of rucaparib in patients with advanced solid tumors and hepatic impairment” (Cancer Chemotherapy and Pharmacology, 2021)
